In publication doi:10.1101/2025.07.30.667614, “Steric control of signaling bias in the immunometabolic receptor GPR84” (bioRxiv, 2025):
Where two headings read alike, the source gives them in different places.

Key:
wild type GPR84 [1] = biological target: T1, wild type GPR84 (Homo sapiens, UniProt Q9NQS5); test: pThr263/pThr264 GPR84 phosphorylation assay (magnetic bead capture); format: cell-based; details: for EC50: 5 min stimulation, read-out: pEC50 ± SEM, phosphorylation of Thr263 and Thr264 (converted)
T1 construct: expressed in transfected cells
Description: Flp-In™ TREx™ 293 cells engineered to express FLAG-GPR84-eYFP were seeded onto poly-D-lysine-coated clear 96-well plates at a density of 5 x 10^4 cells/well and grown overnight before treatment with 100 ng/ml doxycycline to induce receptor expression. After 24 h, cells were serum starved for 2 hours then stimulated with the indicated agonists, prepared in serum free media, for 5 min at 37 °C. After washing with ice-cold PBS, cells were lysed in 100 μl/well lysis buffer (150 mM NaCl, 50 mM Tris-HCl, 5 mM EDTA, 1% IGEPAL (Nonidet P-40), 0.5% deoxycholic acid, and 0.1% SDS; pH 7.4) supplemented with protease and phosphatase inhibitor cocktail on an orbital shaker for 1 hour at 4 °C. Lysates were cleared by centrifugation at 3700 × g for 20 min at 4 °C and 80 μl of supernatants transferred into 96-U-bottom-well assay plates (Greiner Bio-One). GFP-Trap® magnetic agarose beads (1 μl/well) were washed then diluted in lysis buffer to give a total volume of 20 μl of bead slurry per well before adding to supernatant. Assay plates were incubated on a microplate shaker at 700 rpm for 2 h at 4 °C then washed three times with 100 μl of PBS with 0.1% Tween-20 (PBS-T) under magnetic force using a handheld magnetic separation block (Milliplex, Millipore). After washing, anti-pThr263/pThr264 antiserum was diluted 1:1000 in PBS-T then 60 μl added to assay plate. The plates were then incubated overnight at 4 °C on a microplate shaker. After another wash cycle (3 x with PBS-T), anti-rabbit horseradish […] (HRP)-linked secondary antibody was added to PBS-T to a final dilution of 1:10,000 and incubated on a microplate shaker for 2 h at room temperature. After a further wash cycle, 100 μl of TMB substrate solution was added to each well and the plates were incubated for 15 min. The reaction was stopped by the addition of 100 μl of 0.3 M sulphuric acid. The assay plates were then placed on a magnetic separation block and 100 μl of the supernatant was transferred to a transparent 96-well F-bottom plate. The OD at 450 nm was then read on a PHERAstar FS plate reader (BMG Labtech).

wild type GPR84 [2] = biological target: T1, wild type GPR84; test: pThr263/pThr264 immunoblot of immunoprecipitated GPR84-eYFP; format: cell-based; details: 1 μM
Description: eYFP-linked receptor constructs were immunoprecipitated from 200 μl cell lysates using GFP-Trap® agarose beads (Proteintech) according to manufacturer’s instructions. Immunocomplexes were washed three times in washing buffer, resuspended in 100 μl 2 × SDS-PAGE sample buffer and incubated at 60 °C for 10 min. Following centrifugation at 2500g for 5 min, 20 μl of immunoprecipitated proteins was resolved by SDS-PAGE on 4% to 12% BisTris gels. After separation, the proteins were transferred electrophoretically onto nitrocellulose membrane, which was then blocked using 5% bovine serum albumin (BSA) in Tris-buffered saline (TBS, 50 mM Tris-Cl, 150 mM NaCl, pH 7.6) for 1 h at room temperature on an orbital shaker. The membrane was then incubated with appropriate primary antibody in 5% BSA in TBS supplemented with 0.1% Tween (TBS-T) overnight at 4 °C. Anti-pThr^263/pThr^264 antiserum was diluted 1:2000 and anti-GFP was diluted 1:10,000. Subsequently, the membrane was washed (3 × 10 min with TBS-T) and incubated for 2 h with anti-rabbit secondary antibody diluted 1:10,000 in 5% BSA in TBS-T. After washing (3 × 10 min with TBS-T), proteins were detected using an Odyssey imaging system (Licor) according to the manufacturer’s instructions.

GPR84 L336A = biological target: T2, GPR84 L336A (Homo sapiens, UniProt Q9NQS5, L336A); test: BRET β-arrestin-1 recruitment assay, HEK293T cells; format: cell-based; details: for EC50: L336A, read-out: β-arrestin-1 pEC50 ± SEM (converted)
T2 construct: FLAG (N); eYFP (C); expressed in transfected cells; host or cells: HEK293T, transient
Description: (§1) As a control, cells were transfected with 100:1 ratio of empty plasmid and the appropriate arrestin isoform fused to nano-luciferase. After 24 h, cells were seeded at 50,000 cells per well in poly-D-lysine-coated white 96-well plates and incubated at 37°C overnight. After 24 h, cells were washed twice with Hank’s balanced salt solution (HBSS), pH 7.4, and 10 μl/well of the nano-luciferase substrate coelenterazine-h (Nanolight Technologies) was added to a final concentration of 5 μM. Cells were incubated in the dark for 10 min at 37°C, after which 10 μl/well of the agonist compound was added, and the cells were incubated for another 5 minutes. 15 min after coelenterazine-h addition, reading of emission signals were performed on a PHERAstar FS plate reader (BMG Labtech) at 475 and 535 nm, representing nano-luciferase and eYFP emission signals, respectively. The net bioluminescence resonance energy transfer (BRET) ratio (mBRET) was calculated as follows: mBRET=(BRET^sample−BRET^control)*1000whereBRET=Emission^535nm/Emission^475nm

GPR84 S331A = biological target: T3, GPR84 S331A (Homo sapiens, UniProt Q9NQS5, S331A); test: BRET β-arrestin-1 recruitment assay, HEK293T cells; format: cell-based; details: for Emax: HEK-293T
T3 construct: FLAG (N); eYFP (C); expressed in transfected cells; host or cells: HEK293T, transient
Description: as §1

GPR84 (wild type) = biological target: T4, GPR84 (wild type) (Homo sapiens, UniProt Q9NQS5); test: Competition binding assay with orthosteric antagonist [3H]140
T4 construct: expressed in transfected cells; host or cells: Flp-In T-REx 293 cells (membranes, doxycycline-induced)
Description: Binding was initiated by the addition of 5 μg membrane protein generated from Flp-In™ T-REx™ cells induced to express the receptor construct of interest with 100 ng/ml doxycycline. Nonspecific binding of the radioligand was determined in the presence of 10 μM compound 837. All assays were performed at 25 °C for 1 h before termination by the addition of ice-cold phosphate-buffered saline (PBS) and vacuum filtration through GF/C glassfibre filter-bottom 96-well microplates using a UniFilter FilterMate Harvester (Revvity). Each well was washed three times with ice-cold PBS and filters were allowed to dry for 2–3 h before addition of 50 μl of Ultima Gold™ XR. Radioactivity was quantified by liquid scintillation spectrometry.

GPR84 = GPR84 (Homo sapiens, UniProt Q9NQS5); test: Competition binding kinetics of [3H]140 (on and off rates of unlabeled ligands); parameters: expressed in transfected cells; host or cells: membranes; details: for Kd: read-out: Koff/Kon
Description: The kinetic binding parameters of unlabeled ligands were determined through assessment of the binding kinetics of [^3H]140.[21] […] At the indicated time points, membrane protein was added, and tubes were gently agitated. Three different concentrations of competitor were assessed to ensure that the rate parameters calculated were independent of ligand concentration.

[3] = competition with [3H]140, Fig. 1f, read-out: pKi (converted)

T3 sequence (Q9NQS5 whole entry S331A): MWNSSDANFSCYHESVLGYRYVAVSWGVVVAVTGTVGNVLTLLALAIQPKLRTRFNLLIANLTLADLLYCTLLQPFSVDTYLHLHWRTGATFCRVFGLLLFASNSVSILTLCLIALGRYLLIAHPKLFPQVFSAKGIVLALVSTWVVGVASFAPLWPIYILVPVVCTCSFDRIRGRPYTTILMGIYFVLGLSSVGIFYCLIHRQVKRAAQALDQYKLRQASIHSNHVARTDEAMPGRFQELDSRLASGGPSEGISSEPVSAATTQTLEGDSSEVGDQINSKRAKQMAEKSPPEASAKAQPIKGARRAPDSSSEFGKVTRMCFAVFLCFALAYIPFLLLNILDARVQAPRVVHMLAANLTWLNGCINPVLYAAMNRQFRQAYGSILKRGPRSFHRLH
T4 sequence (Q9NQS5+P04899 fused P04899:C352I): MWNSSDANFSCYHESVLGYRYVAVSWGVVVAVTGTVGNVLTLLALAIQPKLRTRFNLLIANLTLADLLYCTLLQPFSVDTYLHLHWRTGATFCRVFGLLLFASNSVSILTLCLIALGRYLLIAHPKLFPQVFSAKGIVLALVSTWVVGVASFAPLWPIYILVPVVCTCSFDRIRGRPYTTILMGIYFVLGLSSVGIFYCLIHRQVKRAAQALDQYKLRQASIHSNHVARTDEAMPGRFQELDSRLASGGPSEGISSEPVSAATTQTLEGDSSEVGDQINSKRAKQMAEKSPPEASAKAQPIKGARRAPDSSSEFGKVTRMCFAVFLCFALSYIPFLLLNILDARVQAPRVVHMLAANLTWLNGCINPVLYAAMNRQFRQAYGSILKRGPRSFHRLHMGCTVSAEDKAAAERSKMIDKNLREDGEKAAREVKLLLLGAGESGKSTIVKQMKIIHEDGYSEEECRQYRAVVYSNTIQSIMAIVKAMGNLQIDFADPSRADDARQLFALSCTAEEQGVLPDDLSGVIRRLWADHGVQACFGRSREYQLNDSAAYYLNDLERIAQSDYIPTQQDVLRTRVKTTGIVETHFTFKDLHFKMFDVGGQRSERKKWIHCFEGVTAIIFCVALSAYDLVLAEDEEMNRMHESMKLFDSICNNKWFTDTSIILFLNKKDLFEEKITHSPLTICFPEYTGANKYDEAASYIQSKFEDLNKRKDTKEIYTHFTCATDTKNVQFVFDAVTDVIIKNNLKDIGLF
T2 sequence (Q9NQS5 whole entry L336A): as the sequence (Q9NQS5 whole entry S331A) above, with A331S, L336A counted along it
GPR84, sequence (Q9NQS5 whole entry): as the sequence (Q9NQS5 whole entry S331A) above, with A331S counted along it
T1 sequence (Q9NQS5 whole entry): as the sequence (Q9NQS5 whole entry S331A) above, with A331S counted along it

koff (GPR84; Fig. 1g, read-out: Koff (converted))	kon (GPR84; Fig. 1g, read-out: Kon (converted))	Compound	EC50 (wild type GPR84 [1])	potency and efficacy in promoting phosphorylation of Thr263/Thr264 (wild type GPR84 [1]; magnetic bead capture assay)	phosphorylation of Thr263 and Thr264 (immunoblot) (wild type GPR84 [2])	EC50 (GPR84 L336A)	efficacy in promoting interaction with β-arrestin-1 (GPR84 L336A; Leu336Ala GPR84, HEK293T)	EC50 (GPR84 S331A)	Emax (GPR84 S331A)	Ki (GPR84 (wild type); GPR84-Gi2 fusion protein stable cell line, Extended Data Fig. 7, read-out: pKi (WT) (converted))	Ki (GPR84 (wild type); [3])	koff (GPR84)	kon (GPR84)	Kd (GPR84; Fig. 1g)
		[O-][n+]1cc(O)cc(CCc2ccc(Cl)c(C(F)(F)F)c2)c1 [OX04529]	12.3 nM	weak efficacy	ineffective	1.86 nM	full agonist	28.8 nM	24 ± 6%	51.3 nM	10.2 nM	0.000649 s⁻¹	443000 M⁻¹ s⁻¹	1.54 ± 0.2 nM
0.000429 s⁻¹	254000 M⁻¹ s⁻¹	Cc1cc(CCCc2cc(O)c[n+]([O-])c2)ccc1Cl [OX04954]	7.59 nM		promoted phosphorylation	2.14 nM		30.9 nM	66 ± 7%		6.76 nM			1.83 ± 0.31 nM
